Results on one compound are retold here after paper PMC5218480 (PLoS ONE, 2017).

This assay concerns MV-4-11 cells. The assay is described as follows: Gene expression microarray analysis (Affymetrix PrimeView) and GSEA. In kind it is cell-based, human. Details: RFU PODN (11730768_x_at) / Fold change /veh PODN (11730768_x_at) / RFU LINC00158 (11744669_a_at) / Fold change /veh LINC00158 (11744669_a_at) / RFU DUSP10 (11751237_a_at) / Fold change /veh DUSP10 (11751237_a_at) / RFU ID3 (11757404_x_at) / Fold change /veh ID3 (11757404_x_at) / RFU PLEKHG5 (11737974_s_at) / Fold change /veh PLEKHG5 (11737974_s_at) / RFU LRRC4B (11730491_at) / Fold change /veh LRRC4B (11730491_at) / RFU GIMAP4 (11747438_a_at) / Fold change /veh GIMAP4 (11747438_a_at) / RFU KRT8 (11758183_x_at) / Fold change /veh KRT8 (11758183_x_at) / RFU CNN1 (11734310_a_at) / Fold change /veh CNN1 (11734310_a_at) / RFU VPS37D (11726825_at) / Fold change /veh VPS37D (11726825_at) / RFU C10orf10 (11716522_x_at) / Fold change /veh C10orf10 (11716522_x_at) / RFU KIR2DL2 /// KIR2DL4 /// KIR2DL5A /// KIR2DL5B /// KIR2DS1 /// KIR2DS2 /// KIR2DS3 /// KIR2DS4 /// KIR3DL3 /// KIR3DL3 /// KIR3DS1 (11738374_at) / Fold change /veh KIR2DL2 /// KIR2DL4 /// KIR2DL5A /// KIR2DL5B /// KIR2DS1 /// KIR2DS2 /// KIR2DS3 /// KIR2DS4 /// KIR3DL3 /// KIR3DL3 /// KIR3DS1 (11738374_at) / RFU C1QL1 (11718748_at) / Fold change /veh C1QL1 (11718748_at) / RFU TMPRSS4 (11747572_a_at) / Fold change /veh TMPRSS4 (11747572_a_at) / RFU HAMP (11756126_x_at) / Fold change /veh HAMP (11756126_x_at) / RFU RNFT2 (11725882_a_at) / Fold change /veh RNFT2 (11725882_a_at) / RFU NR4A2 (11747474_a_at) / Fold change /veh NR4A2 (11747474_a_at) / RFU ABCC12 (11746883_a_at) / Fold change /veh ABCC12 (11746883_a_at) / RFU TMEM136 (11760407_x_at) / Fold change /veh TMEM136 (11760407_x_at) / RFU CLDN22 /// WWC2 (11732394_at) / Fold change /veh CLDN22 /// WWC2 (11732394_at) / RFU HLA-DPB1 (11760878_x_at) / Fold change /veh HLA-DPB1 (11760878_x_at) / RFU SPINT1 (11716480_a_at) / Fold change /veh SPINT1 (11716480_a_at) / RFU GAP43 (11754022_s_at) / Fold change /veh GAP43 (11754022_s_at) / RFU A4GNT (11735810_at) / Fold change /veh A4GNT (11735810_at) / RFU PRB3 (11715151_x_at) / Fold change /veh PRB3 (11715151_x_at) / RFU TUBB4B (11761932_at) / Fold change /veh TUBB4B (11761932_at) / RFU CAPN14 (11732068_a_at) / Fold change /veh CAPN14 (11732068_a_at) / RFU TMCC2 (11721928_a_at) / Fold change /veh TMCC2 (11721928_a_at) / RFU IRGQ (11745062_a_at) / Fold change /veh IRGQ (11745062_a_at) / RFU FAM174B (11720279_a_at) / Fold change /veh FAM174B (11720279_a_at) / RFU TMPRSS4 (11748680_a_at) / Fold change /veh TMPRSS4 (11748680_a_at) / RFU FAM212B (11763350_a_at) / Fold change /veh FAM212B (11763350_a_at) / RFU PLEKHG5 (11743358_a_at) / Fold change /veh PLEKHG5 (11743358_a_at) / RFU ZSCAN30 (11745921_a_at) / Fold change /veh ZSCAN30 (11745921_a_at) / RFU CMKLR1 (11741424_a_at) / Fold change /veh CMKLR1 (11741424_a_at) / RFU LOC101060620 /// MAPK8IP1 (11723275_at) / Fold change /veh LOC101060620 /// MAPK8IP1 (11723275_at) / RFU SPTSSB (11747773_x_at) / Fold change /veh SPTSSB (11747773_x_at) / RFU PRSS12 (11739890_at) / Fold change /veh PRSS12 (11739890_at) / RFU BIN1 (11741810_x_at) / Fold change /veh BIN1 (11741810_x_at) / RFU WNT11 (11732464_a_at) / Fold change /veh WNT11 (11732464_a_at) / RFU C10orf10 (11716521_a_at) / Fold change /veh C10orf10 (11716521_a_at) / RFU C5orf56 (11738089_at) / Fold change /veh C5orf56 (11738089_at) / RFU CYB561 (11721691_x_at) / Fold change /veh CYB561 (11721691_x_at) / RFU ANKRD19P (11752326_a_at) / Fold change /veh ANKRD19P (11752326_a_at) / RFU OR2T12 /// OR2T33 /// OR2T8 (11738714_s_at) / Fold change /veh OR2T12 /// OR2T33 /// OR2T8 (11738714_s_at) / RFU VCAN (11748164_a_at) / Fold change /veh VCAN (11748164_a_at) / RFU JSRP1 (11732532_at) / Fold change /veh JSRP1 (11732532_at) / RFU KRTAP10-11 (11738290_x_at) / Fold change /veh KRTAP10-11 (11738290_x_at) / RFU MYO3A (11730013_a_at) / Fold change /veh MYO3A (11730013_a_at) / RFU EBF3 (11725865_a_at) / Fold change /veh EBF3 (11725865_a_at) / RFU CAMK2N1 (11719241_x_at) / Fold change /veh CAMK2N1 (11719241_x_at) / RFU C5orf56 (11738088_a_at) / Fold change /veh C5orf56 (11738088_a_at) / RFU OLFML3 (11715873_a_at) / Fold change /veh OLFML3 (11715873_a_at) / RFU LOC100653217 /// NTM (11731650_a_at) / Fold change /veh LOC100653217 /// NTM (11731650_a_at) / RFU MAPK11 (11762145_a_at) / Fold change /veh MAPK11 (11762145_a_at) / RFU FIZ1 (11724087_x_at) / Fold change /veh FIZ1 (11724087_x_at) / RFU OASL (11726364_x_at) / Fold change /veh OASL (11726364_x_at) / RFU SOX15 (11748057_x_at) / Fold change /veh SOX15 (11748057_x_at) / RFU CD79A (11719716_a_at) / Fold change /veh CD79A (11719716_a_at) / RFU HIST1H1D (11736915_at) / Fold change /veh HIST1H1D (11736915_at) / RFU CASKIN2 (11723855_a_at) / Fold change /veh CASKIN2 (11723855_a_at) / RFU LOC730098 (11760151_x_at) / Fold change /veh LOC730098 (11760151_x_at) / RFU OR4N2 (11742367_at) / Fold change /veh OR4N2 (11742367_at) / RFU PRRT2 (11749266_a_at) / Fold change /veh PRRT2 (11749266_a_at) / RFU SNX32 (11753110_a_at) / Fold change /veh SNX32 (11753110_a_at) / RFU CDHR5 (11726645_a_at) / Fold change /veh CDHR5 (11726645_a_at) / RFU RCAN1 (11760418_a_at) / Fold change /veh RCAN1 (11760418_a_at) / RFU FAM167A (11723789_a_at) / Fold change /veh FAM167A (11723789_a_at) / RFU FAM26E (11764081_at) / Fold change /veh FAM26E (11764081_at) / RFU ISYNA1 (11749810_s_at) / Fold change /veh ISYNA1 (11749810_s_at) / RFU ACY1 (11761880_at) / Fold change /veh ACY1 (11761880_at) / RFU 11764098_at / Fold change /veh 11764098_at / RFU SAMD14 (11745864_x_at) / Fold change /veh SAMD14 (11745864_x_at) / RFU NPB (11741838_a_at) / Fold change /veh NPB (11741838_a_at) / RFU TMPRSS6 (11731388_a_at) / Fold change /veh TMPRSS6 (11731388_a_at) / RFU KRTAP10-2 (11738614_at) / Fold change /veh KRTAP10-2 (11738614_at) / RFU ARHGAP8 /// PRR5-ARHGAP8 (11727945_x_at) / Fold change /veh ARHGAP8 /// PRR5-ARHGAP8 (11727945_x_at) / RFU KRTAP5-7 /// NADSYN1 (11734609_at) / Fold change /veh KRTAP5-7 /// NADSYN1 (11734609_at) / RFU RASL12 (11751679_a_at) / Fold change /veh RASL12 (11751679_a_at) / RFU CDKN2B (11736163_a_at) / Fold change /veh CDKN2B (11736163_a_at) / RFU PRF1 (11729649_at) / Fold change /veh PRF1 (11729649_at) / RFU, ZNF638 /// ZNF638-IT1 / Fold change vs veh, ZNF638 /// ZNF638-IT1 / RFU, PANK3 / Fold change vs veh, PANK3 / RFU, SH3YL1 / Fold change vs veh, SH3YL1 / RFU, ZEB2 / Fold change vs veh, ZEB2 / RFU, NRIP1 / Fold change vs veh, NRIP1 / RFU, PTTG1IP / Fold change vs veh, PTTG1IP / RFU, CAPN2 / Fold change vs veh, CAPN2 / RFU, MED14 / Fold change vs veh, MED14 / RFU, SNORA58 / Fold change vs veh, SNORA58 / RFU, C1orf63 / Fold change vs veh, C1orf63 / RFU, LRRFIP1 / Fold change vs veh, LRRFIP1 / RFU, NDUFAF7 / Fold change vs veh, NDUFAF7 / RFU, SLC12A2 / Fold change vs veh, SLC12A2 / RFU, IBTK / Fold change vs veh, IBTK / RFU, ESF1 / Fold change vs veh, ESF1 / Fold change vs veh, TMEM50B / RFU, TAOK1 / Fold change vs veh, TAOK1 / RFU, ACBD3 / Fold change vs veh, ACBD3 / RFU, TMA16 / Fold change vs veh, TMA16 / RFU, RWDD3 / Fold change vs veh, RWDD3 / RFU, BCAT1 / Fold change vs veh, BCAT1 / RFU, EDEM3 / Fold change vs veh, EDEM3 / RFU, TMEM33 / Fold change vs veh, TMEM33 / RFU, WDR75 / Fold change vs veh, WDR75 / RFU, AHCTF1 / Fold change vs veh, AHCTF1 / RFU, TFRC / Fold change vs veh, TFRC / RFU, ZDHHC17 / Fold change vs veh, ZDHHC17 / RFU, NOM1 / Fold change vs veh, NOM1 / RFU, ARL8B / Fold change vs veh, ARL8B / RFU, ZBTB11 / Fold change vs veh, ZBTB11 / RFU, TAMM41 / Fold change vs veh, TAMM41 / RFU, KIAA1704 /// LOC100996395 / Fold change vs veh, KIAA1704 /// LOC100996395 / RFU, ING1 / Fold change vs veh, ING1 / RFU, TRMT61B / Fold change vs veh, TRMT61B / RFU, FUBP3 / Fold change vs veh, FUBP3 / RFU, TP53 / Fold change vs veh, TP53 / RFU, TNKS2 / Fold change vs veh, TNKS2 / RFU, ZFP14 / Fold change vs veh, ZFP14 / RFU, ACTR2 / Fold change vs veh, ACTR2 / RFU, PPP3R1 / Fold change vs veh, PPP3R1 / RFU, PIK3R1 / Fold change vs veh, PIK3R1 / RFU, HNRNPA1 / Fold change vs veh, HNRNPA1 / RFU, RNF170 / Fold change vs veh, RNF170 / RFU, ZNF28 / Fold change vs veh, ZNF28 / RFU, RNGTT / Fold change vs veh, RNGTT / RFU, OGT / Fold change vs veh, OGT / RFU, BRD1 / Fold change vs veh, BRD1 / RFU, MARS / Fold change vs veh, MARS / RFU, ZNF655 / Fold change vs veh, ZNF655 / RFU, FAHD1 / Fold change vs veh, FAHD1 / RFU, BDP1 / Fold change vs veh, BDP1 / RFU, LRRCC1 / Fold change vs veh, LRRCC1 / RFU, ARID1A / Fold change vs veh, ARID1A / RFU, ZNF146 / Fold change vs veh, ZNF146 / RFU, ZNF330 / Fold change vs veh, ZNF330 / RFU, GPN3 / Fold change vs veh, GPN3 / RFU, C9orf123 / Fold change vs veh, C9orf123 / RFU, N4BP2L2 / Fold change vs veh, N4BP2L2 / RFU, ARFIP1 / Fold change vs veh, ARFIP1 / RFU, FAM179B / Fold change vs veh, FAM179B / RFU, BCL10 / Fold change vs veh, BCL10 / RFU, UHRF1BP1L / Fold change vs veh, UHRF1BP1L / RFU, BET1 / Fold change vs veh, BET1 / RFU, CNOT2 / Fold change vs veh, CNOT2 / RFU, ZNF268 / Fold change vs veh, ZNF268 / Fold change vs veh, ZNF507 / RFU, DGCR2 / Fold change vs veh, DGCR2 / RFU, WDSUB1 / Fold change vs veh, WDSUB1 / Fold change vs veh, HSP90B1 /// MIR3652 / RFU, ADSS / Fold change vs veh, ADSS / RFU, GK / Fold change vs veh, GK / RFU, ZNF148 / Fold change vs veh, ZNF148 / RFU, TAF9 / Fold change vs veh, TAF9 / RFU, SLC1A5 / Fold change vs veh, SLC1A5 / RFU, SLMO2 / Fold change vs veh, SLMO2 / RFU, ABCC4 / Fold change vs veh, ABCC4 / RFU, LOC101060439 /// RAP1B / Fold change vs veh, LOC101060439 /// RAP1B / RFU, RFX7 / Fold change vs veh, RFX7 / RFU, GTPBP10 / Fold change vs veh, GTPBP10 / RFU, CNEP1R1 / Fold change vs veh, CNEP1R1 / RFU, BIVM-ERCC5 /// ERCC5 / Fold change vs veh, BIVM-ERCC5 /// ERCC5 / RFU, ILF3 / Fold change vs veh, ILF3 / RFU 11762660_at / Fold change /veh 11762660_at / RFU VCAN (11757783_s_at) / Fold change /veh VCAN (11757783_s_at) / RFU DDX43 (11728927_at) / Fold change /veh DDX43 (11728927_at) / RFU KRT8 (11758188_x_at) / Fold change /veh KRT8 (11758188_x_at) / RFU NKD1 (11759106_at) / Fold change /veh NKD1 (11759106_at) / RFU SRD5A1 (11742802_a_at) / Fold change /veh SRD5A1 (11742802_a_at) / RFU TPSAB1 /// TPSB2 (11721975_s_at) / Fold change /veh TPSAB1 /// TPSB2 (11721975_s_at) / RFU GSTM3 (11746129_a_at) / Fold change /veh GSTM3 (11746129_a_at) / RFU IL23R (11737362_x_at) / Fold change /veh IL23R (11737362_x_at) / RFU TMEM51 (11727254_a_at) / Fold change /veh TMEM51 (11727254_a_at) / RFU PIWIL2 (11732686_x_at) / Fold change /veh PIWIL2 (11732686_x_at) / RFU ORM1 (11744905_x_at) / Fold change /veh ORM1 (11744905_x_at) / RFU CCDC152 (11743942_at) / Fold change /veh CCDC152 (11743942_at) / RFU ECM1 (11717891_a_at) / Fold change /veh ECM1 (11717891_a_at) / RFU IL23R (11748794_a_at) / Fold change /veh IL23R (11748794_a_at) / RFU TNFAIP8L3 (11732012_x_at) / Fold change /veh TNFAIP8L3 (11732012_x_at) / RFU MBOAT4 (11741988_at) / Fold change /veh MBOAT4 (11741988_at) / RFU 11764193_at / Fold change /veh 11764193_at / RFU TMEM53 (11763286_at) / Fold change /veh TMEM53 (11763286_at) / RFU MAGEB2 (11727129_at) / Fold change /veh MAGEB2 (11727129_at) / RFU TMEM200A (11744735_a_at) / Fold change /veh TMEM200A (11744735_a_at) / RFU CCDC152 (11751479_a_at) / Fold change /veh CCDC152 (11751479_a_at) / RFU FAM211A (11726209_a_at) / Fold change /veh FAM211A (11726209_a_at) / RFU RGS16 (11746705_a_at) / Fold change /veh RGS16 (11746705_a_at) / RFU VCAN (11755009_s_at) / Fold change /veh VCAN (11755009_s_at) / RFU RHOB (11743442_s_at) / Fold change /veh RHOB (11743442_s_at) / RFU RGS16 (11720943_a_at) / Fold change /veh RGS16 (11720943_a_at) / RFU RGS16 (11720944_at) / Fold change /veh RGS16 (11720944_at) / RFU, VPS4B / Fold change vs veh, VPS4B / RFU, CREB1 / Fold change vs veh, CREB1 / RFU, DNAJC13 / Fold change vs veh, DNAJC13 / RFU, GNAQ / Fold change vs veh, GNAQ / RFU, CDK5R1 / Fold change vs veh, CDK5R1 / RFU, ZRANB3 / Fold change vs veh, ZRANB3 / RFU, CUL4A / Fold change vs veh, CUL4A / RFU, CCNY / Fold change vs veh, CCNY / RFU, UFL1 / Fold change vs veh, UFL1 / RFU, COG3 / Fold change vs veh, COG3 / RFU, DIAPH2 / Fold change vs veh, DIAPH2 / RFU, SKA2 / Fold change vs veh, SKA2 / RFU, AFF3 / Fold change vs veh, AFF3 / RFU, LMF1 / Fold change vs veh, LMF1 / RFU, IPO11 / Fold change vs veh, IPO11 / RFU, DFFB / Fold change vs veh, DFFB / RFU, FOXP1 / Fold change vs veh, FOXP1 / RFU, CARD8 / Fold change vs veh, CARD8 / RFU, STRN3 / Fold change vs veh, STRN3 / RFU, ADK / Fold change vs veh, ADK / RFU, RASSF2 / Fold change vs veh, RASSF2 / RFU, WIPF1 / Fold change vs veh, WIPF1 / RFU, LARP1B / Fold change vs veh, LARP1B / RFU, RASA1 / Fold change vs veh, RASA1 / RFU, RB1 / Fold change vs veh, RB1 / RFU, PPFIA1 / Fold change vs veh, PPFIA1 / RFU, MAT2A / Fold change vs veh, MAT2A / RFU, CCT5 / Fold change vs veh, CCT5 / RFU, WDR92 / Fold change vs veh, WDR92 / RFU, CUX1 / Fold change vs veh, CUX1 / RFU, TTC7A / Fold change vs veh, TTC7A / RFU, TMEM135 / Fold change vs veh, TMEM135 / RFU, DEPTOR / Fold change vs veh, DEPTOR / RFU, CPM / Fold change vs veh, CPM / RFU, DNAJB6 / Fold change vs veh, DNAJB6 / RFU, CACNA2D3 / Fold change vs veh, CACNA2D3 / RFU, DTX4 / Fold change vs veh, DTX4 / RFU, TFCP2 / Fold change vs veh, TFCP2 / RFU, GMCL1 /// GMCL1P1 / Fold change vs veh, GMCL1 /// GMCL1P1 / RFU, AEBP2 / Fold change vs veh, AEBP2 / RFU, SNHG1 /// SNORD22 /// SNORD25 /// SNORD26 /// SNORD27 /// SNORD28 /// SNORD29 /// SNORD31 / Fold change vs veh, SNHG1 /// SNORD22 /// SNORD25 /// SNORD26 /// SNORD27 /// SNORD28 /// SNORD29 /// SNORD31 / Fold change (Aza/veh), C12orf56 (ProbeSet 11735607_a_at) / Fold change (ACY-1035/veh), C12orf56 (ProbeSet 11735607_a_at) / Fold change (Aza/veh), FGFR1OP (ProbeSet 11751329_s_at) / Fold change (ACY-1035/veh), FGFR1OP (ProbeSet 11751329_s_at) / Fold change (Aza/veh), VPS36 (ProbeSet 11739960_a_at) / Fold change (ACY-1035/veh), VPS36 (ProbeSet 11739960_a_at) / RFU SYPL1 (11715823_x_at) / Fold change /veh SYPL1 (11715823_x_at) / RFU IGFBP7 (11715501_s_at) / Fold change /veh IGFBP7 (11715501_s_at) / RFU REEP3 (11722064_at) / Fold change /veh REEP3 (11722064_at) / RFU IGLL1 (11728026_x_at) / Fold change /veh IGLL1 (11728026_x_at): dose or concentration left out as unconfirmed. The settings on record: ProbeSet 11750457_a_at; LIST B.

Take `Nc1ccc(-c2cccs2)cc1NC(=O)c1ccc2c(c1)cc(C1CC1)n2CCN1CCOCC1` [ACY-1035]: the “Fold change vs veh, GTPBP10” value worked out at 0.84.
